Reference: ChEMBL document CHEMBL3390848, “Affinity selection and sequence-activity relationships of HIV-1 membrane fusion inhibitors directed at the drug-resistant variants” (Medchemcomm, 2010)
Residues, ends and D or L forms follow the SMILES beside them.

Key:
[1] = test system: Human immunodeficiency virus 1; experiment: Thermal stability of HIV1 envelope glycoprotein gp41 His-tagged N-terminal heptad repeat N54-drug complex assessed as thermal unfolding transition state by measuring molar ellipticity at 4 to 90 degC by circular dichroic spectra analysis
[2] = test system: Human immunodeficiency virus 1; experiment: Binding affinity to HIV1 His-tagged N-terminal heptad repeat of envelope glycoprotein gp41 assessed as recovery of N54-drug complex after 2 hrs by LC-MS analysis; design: concentration or dose not given beside the values
[3] = test system: Human immunodeficiency virus 1; experiment: Antiviral activity against HIV1 NL4-3 harboring gp41 D36G mutant infected in human HeLa cells expressing CD4-LTR-beta-gal assessed as inhibition of viral replication after 48 hrs by MAGI assay; format: functional, organism-based

Structure (SMILES)	Tm [1]	Activity [2]	EC50 [3]
CC[C@H](C)[C@H](NC(=O)[C@H](CC(C)C)NC(=O)[C@H](CCC(=O)O)NC(=O)[C@H](CCC(=O)O)NC(=O)[C@@H](NC(=O)[C@H](CC(C)C)NC(=O)[C@H](CO)NC(=O)[C@@H](NC(=O)[C@H](Cc1ccc(O)cc1)NC(C)=O)[C@@H](C)O)[C@@H](C)CC)C(=O)N[C@@H](CCCCN)C(=O)N[C@@H](CCCCN)C(=O)N[C@@H](CO)C(=O)N[C@@H](CCC(=O)O)C(=O)N[C@@H](CCC(=O)O)C(=O)N[C@@H](Cc1cnc[nH]1)C(=O)N[C@@H](CCC(N)=O)C(=O)N[C@@H](CCCCN)C(=O)N[C@@H](CCCCN)C(=O)N[C@@H](CC(N)=O)C(=O)N[C@@H](CCC(=O)O)C(=O)N[C@@H](CCC(=O)O)C(=O)N[C@@H](CCC(=O)O)C(=O)N[C@@H](CC(C)C)C(=O)N[C@@H](CCCCN)C(=O)N[C@@H](CCCCN)C(=O)N[C@@H](CC(C)C)C(=O)N[C@@H](CCC(=O)O)C(=O)N[C@@H](CCC(=O)O)C(=O)N[C@@H](Cc1c[nH]c2ccccc12)C(=O)N[C@@H](C)C(=O)N[C@@H](CCCCN)C(=O)N[C@@H](CCCCN)C(=O)N[C@@H](Cc1c[nH]c2ccccc12)C(=O)N[C@@H](CC(N)=O)C(=O)N[C@@H](Cc1c[nH]c2ccccc12)C(=O)N[C@@H](Cc1ccccc1)C(N)=O (Ac-YTSLIEELIKKSEEHQKKNEEELKKLEEWAKKWNWF-NH2)	68.4 °C	3.7%	3 nM
CC[C@H](C)[C@H](NC(=O)[C@H](CC(C)C)NC(=O)[C@H](CCC(=O)O)NC(=O)[C@H](CCC(=O)O)NC(=O)[C@@H](NC(=O)[C@H](CC(C)C)NC(=O)[C@H](CO)NC(=O)[C@@H](NC(=O)[C@H](Cc1ccc(O)cc1)NC(C)=O)[C@@H](C)O)[C@@H](C)CC)C(=O)N[C@@H](CCCCN)C(=O)N[C@@H](CCCCN)C(=O)N[C@@H](CC(N)=O)C(=O)N[C@@H](CCC(=O)O)C(=O)N[C@@H](CCC(=O)O)C(=O)N[C@@H](CCC(N)=O)C(=O)N[C@@H](CCC(N)=O)C(=O)N[C@@H](CCCCN)C(=O)N[C@@H](CCCCN)C(=O)N[C@@H](CC(N)=O)C(=O)N[C@@H](CCC(=O)O)C(=O)N[C@@H](CCC(=O)O)C(=O)N[C@@H](CCC(=O)O)C(=O)N[C@@H](CC(C)C)C(=O)N[C@@H](CCCCN)C(=O)N[C@@H](CCCCN)C(=O)N[C@@H](CC(C)C)C(=O)N[C@@H](CCC(=O)O)C(=O)N[C@@H](CCC(=O)O)C(=O)N[C@@H](Cc1c[nH]c2ccccc12)C(=O)N[C@@H](C)C(=O)N[C@@H](CCCCN)C(=O)N[C@@H](CCCCN)C(=O)N[C@@H](Cc1c[nH]c2ccccc12)C(=O)N[C@@H](CC(N)=O)C(=O)N[C@@H](Cc1c[nH]c2ccccc12)C(=O)N[C@@H](Cc1ccccc1)C(N)=O (Ac-YTSLIEELIKKNEEQQKKNEEELKKLEEWAKKWNWF-NH2)	65.7 °C	3.5%	4.8 nM
CC[C@H](C)[C@H](NC(=O)[C@H](CC(C)C)NC(=O)[C@H](CCC(=O)O)NC(=O)[C@H](CCC(=O)O)NC(=O)[C@@H](NC(=O)[C@H](CC(C)C)NC(=O)[C@H](CO)NC(=O)[C@@H](NC(=O)[C@H](Cc1ccc(O)cc1)NC(C)=O)[C@@H](C)O)[C@@H](C)CC)C(=O)N[C@@H](CCCCN)C(=O)N[C@@H](CCCCN)C(=O)N[C@H](C(=O)N[C@@H](CCC(=O)O)C(=O)N[C@@H](CCC(=O)O)C(=O)N[C@@H](CCC(N)=O)C(=O)N[C@@H](CCC(N)=O)C(=O)N[C@@H](CCCCN)C(=O)N[C@@H](CCCCN)C(=O)N[C@@H](CC(N)=O)C(=O)N[C@@H](CCC(=O)O)C(=O)N[C@@H](CCC(=O)O)C(=O)N[C@@H](CCC(=O)O)C(=O)N[C@@H](CC(C)C)C(=O)N[C@@H](CCCCN)C(=O)N[C@@H](CCCCN)C(=O)N[C@@H](CC(C)C)C(=O)N[C@@H](CCC(=O)O)C(=O)N[C@@H](CCC(=O)O)C(=O)N[C@@H](Cc1c[nH]c2ccccc12)C(=O)N[C@@H](C)C(=O)N[C@@H](CCCCN)C(=O)N[C@@H](CCCCN)C(=O)N[C@@H](Cc1c[nH]c2ccccc12)C(=O)N[C@@H](CC(N)=O)C(=O)N[C@@H](Cc1c[nH]c2ccccc12)C(=O)N[C@@H](Cc1ccccc1)C(N)=O)C(C)C (Ac-YTSLIEELIKKVEEQQKKNEEELKKLEEWAKKWNWF-NH2)	76 °C	9.4%	0.3 nM
